≈ marks a conversion by molar mass, not a printed value. Read-outs that look alike come from different tables or passages of the source.
Assays:
Format in all cases: cell-based
[1] = tested on: E. coli KA797 cells carrying NmcA position 105 library
[2] = tested on: E. coli KA797 cells carrying pUK21 with NmcA (pelB/Sec); test: microbe, parasite or virus in culture; conditions: Escherichia coli, antibiotic alone
[3] = tested on: E. coli KA797 cells carrying TEM-1 position 105 library; conditions: for Fi MEM AVG: average of replicates
[4] = tested on: E. coli KA797 cells carrying pUK21 with BlaC WT (Tat); test: microbe, parasite or virus in culture; conditions: Escherichia coli, antibiotic alone
[5] = tested on: E. coli KA797 cells carrying pUK21 with KPC-2 (Tat); test: microbe, parasite or virus in culture; conditions: Escherichia coli, antibiotic alone

C[C@@H](O)[C@H]1C(=O)N2C(C(=O)O)=C(S[C@@H]3CN[C@H](C(=O)N(C)C)C3)[C@H](C)[C@H]12 [meropenem]
Fi (relative fitness), Replicate 1 ([1]; NmcA AA 105 Ala): -0.381
Fi AVG (average fitness of replicates) ([1]; NmcA AA 105 Ala): -0.261
Significance of average fitness ([1]; NmcA AA 105 Ala): -
Fi (relative fitness), Replicate 1 ([1]; NmcA AA 105 Arg): 0.092
Fi AVG (average fitness of replicates) ([1]; NmcA AA 105 Arg): 0.048
Fi (relative fitness), Replicate 1 ([1]; NmcA AA 105 Asn): 0.031
Fi AVG (average fitness of replicates) ([1]; NmcA AA 105 Asn): 0.087
Fi (relative fitness), Replicate 1 ([1]; NmcA AA 105 Asp): -0.205
Fi AVG (average fitness of replicates) ([1]; NmcA AA 105 Asp): -0.182
Significance of average fitness ([1]; NmcA AA 105 Asp): -
Fi (relative fitness), Replicate 1 ([1]; NmcA AA 105 Cys): -0.468
Fi AVG (average fitness of replicates) ([1]; NmcA AA 105 Cys): -0.282
Significance of average fitness ([1]; NmcA AA 105 Cys): -
Fi (relative fitness), Replicate 1 ([1]; NmcA AA 105 Gln): 0.037
Fi AVG (average fitness of replicates) ([1]; NmcA AA 105 Gln): 0.055
Fi (relative fitness), Replicate 1 ([1]; NmcA AA 105 Glu): -0.016
Fi AVG (average fitness of replicates) ([1]; NmcA AA 105 Glu): -0.061
Fi (relative fitness), Replicate 1 ([1]; NmcA AA 105 Gly): 0.015
Fi AVG (average fitness of replicates) ([1]; NmcA AA 105 Gly): -0.027
Fi (relative fitness), Replicate 1 ([1]; NmcA AA 105 His): 0.000
Fi AVG (average fitness of replicates) ([1]; NmcA AA 105 His): 0.000
Fi AVG (average fitness of replicates) ([1]; NmcA AA 105 Ile): 0.105
Significance of average fitness ([1]; NmcA AA 105 Ile): +
Fi (relative fitness), Replicate 1 ([1]; NmcA AA 105 Leu): -0.100
Fi AVG (average fitness of replicates) ([1]; NmcA AA 105 Leu): -0.100
Significance of average fitness ([1]; NmcA AA 105 Leu): -
Fi (relative fitness), Replicate 1 ([1]; NmcA AA 105 Lys): -0.081
Fi AVG (average fitness of replicates) ([1]; NmcA AA 105 Lys): -0.032
Fi (relative fitness), Replicate 1 ([1]; NmcA AA 105 Met): -0.00142
Fi AVG (average fitness of replicates) ([1]; NmcA AA 105 Met): 0.024
Fi (relative fitness), Replicate 1 ([1]; NmcA AA 105 Phe): 0.169
Fi AVG (average fitness of replicates) ([1]; NmcA AA 105 Phe): 0.140
Significance of average fitness ([1]; NmcA AA 105 Phe): +
Fi (relative fitness), Replicate 1 ([1]; NmcA AA 105 Pro): -0.067
Fi AVG (average fitness of replicates) ([1]; NmcA AA 105 Pro): -0.060
Significance of average fitness ([1]; NmcA AA 105 Pro): -
Fi (relative fitness), Replicate 1 ([1]; NmcA AA 105 Ser): -0.066
Fi AVG (average fitness of replicates) ([1]; NmcA AA 105 Ser): -0.071
Significance of average fitness ([1]; NmcA AA 105 Ser): -
Fi (relative fitness), Replicate 1 ([1]; NmcA AA 105 Thr): -0.118
Fi AVG (average fitness of replicates) ([1]; NmcA AA 105 Thr): -0.120
Significance of average fitness ([1]; NmcA AA 105 Thr): -
Fi (relative fitness), Replicate 1 ([1]; NmcA AA 105 Trp): 0.105
Fi AVG (average fitness of replicates) ([1]; NmcA AA 105 Trp): 0.078
Fi (relative fitness), Replicate 1 ([1]; NmcA AA 105 Tyr): -0.154
Fi AVG (average fitness of replicates) ([1]; NmcA AA 105 Tyr): -0.163
Significance of average fitness ([1]; NmcA AA 105 Tyr): -
Fi (relative fitness), Replicate 1 ([1]; NmcA AA 105 Val): -0.043
Fi AVG (average fitness of replicates) ([1]; NmcA AA 105 Val): -0.035
WT abs Fi 1 (absolute fitness) ([1]; NmcA WT, replicate 1): 0.00454
WT abs Fi 2 (absolute fitness) ([1]; NmcA WT, replicate 2): 0.092
WT abs Fi 3 (absolute fitness) ([1]; NmcA WT, replicate 3): 0.017
MIC [2]: 1.6 µg/mL (≈ 4.17 µM)
Fi MEM AVG ([3]; AA 105 Ala): 0.062
Fi MEM 1 ([3]; AA 105 Ala, replicate 1): 0.046
Fi MEM 2 ([3]; AA 105 Ala, replicate 2): 0.488
Fi MEM 3 ([3]; AA 105 Ala, replicate 3): -0.350
Fi MEM AVG ([3]; AA 105 Arg): 0.048
Fi MEM 1 ([3]; AA 105 Arg, replicate 1): 0.163
Fi MEM 2 ([3]; AA 105 Arg, replicate 2): 0.269
Fi MEM 3 ([3]; AA 105 Arg, replicate 3): -0.287
Fi MEM AVG ([3]; AA 105 Asn): -0.031
Fi MEM 1 ([3]; AA 105 Asn, replicate 1): -0.022
Fi MEM 2 ([3]; AA 105 Asn, replicate 2): 0.493
Fi MEM 3 ([3]; AA 105 Asn, replicate 3): -0.563
Fi MEM AVG ([3]; AA 105 Asp): -0.366
Fi MEM 1 ([3]; AA 105 Asp, replicate 1): -1.030
Fi MEM 2 ([3]; AA 105 Asp, replicate 2): 0.356
Fi MEM 3 ([3]; AA 105 Asp, replicate 3): -0.424
Fi MEM AVG ([3]; AA 105 Cys): 0.031
Fi MEM 1 ([3]; AA 105 Cys, replicate 1): 0.333
Fi MEM 2 ([3]; AA 105 Cys, replicate 2): 0.230
Fi MEM 3 ([3]; AA 105 Cys, replicate 3): -0.470
Fi MEM AVG ([3]; AA 105 Gln): -0.069
Fi MEM 1 ([3]; AA 105 Gln, replicate 1): -0.210
Fi MEM 2 ([3]; AA 105 Gln, replicate 2): 0.084
Fi MEM 3 ([3]; AA 105 Gln, replicate 3): -0.080
Fi MEM AVG ([3]; AA 105 Glu): -0.063
Fi MEM 1 ([3]; AA 105 Glu, replicate 1): -0.084
Fi MEM 2 ([3]; AA 105 Glu, replicate 2): 0.140
Fi MEM 3 ([3]; AA 105 Glu, replicate 3): -0.245
Fi MEM AVG ([3]; AA 105 Gly): -0.130
Fi MEM 1 ([3]; AA 105 Gly, replicate 1): -0.195
Fi MEM 2 ([3]; AA 105 Gly, replicate 2): 0.032
Fi MEM 3 ([3]; AA 105 Gly, replicate 3): -0.226
Fi MEM AVG ([3]; AA 105 His): -0.172
Fi MEM 1 ([3]; AA 105 His, replicate 1): -0.391
Fi MEM 2 ([3]; AA 105 His, replicate 2): 0.351
Fi MEM 3 ([3]; AA 105 His, replicate 3): -0.475
Fi MEM AVG ([3]; AA 105 Ile): 0.078
Fi MEM 1 ([3]; AA 105 Ile, replicate 1): 0.231
Fi MEM 2 ([3]; AA 105 Ile, replicate 2): 0.143
Fi MEM 3 ([3]; AA 105 Ile, replicate 3): -0.140
Fi MEM AVG ([3]; AA 105 Leu): -0.036
Fi MEM 1 ([3]; AA 105 Leu, replicate 1): -0.102
Fi MEM 2 ([3]; AA 105 Leu, replicate 2): 0.170
Fi MEM 3 ([3]; AA 105 Leu, replicate 3): -0.177
Fi MEM AVG ([3]; AA 105 Lys): -0.052
Fi MEM 1 ([3]; AA 105 Lys, replicate 1): -0.122
Fi MEM 2 ([3]; AA 105 Lys, replicate 2): 0.122
Fi MEM 3 ([3]; AA 105 Lys, replicate 3): -0.155
Fi MEM AVG ([3]; AA 105 Met): -0.379
Fi MEM 1 ([3]; AA 105 Met, replicate 1): -0.840
Fi MEM 2 ([3]; AA 105 Met, replicate 2): 0.139
Fi MEM 3 ([3]; AA 105 Met, replicate 3): -0.436
Fi MEM AVG ([3]; AA 105 Phe): -0.175
Fi MEM 1 ([3]; AA 105 Phe, replicate 1): 0.171
Fi MEM 2 ([3]; AA 105 Phe, replicate 2): -0.315
Fi MEM 3 ([3]; AA 105 Phe, replicate 3): -0.381
Fi MEM AVG ([3]; AA 105 Pro): -0.026
Fi MEM 1 ([3]; AA 105 Pro, replicate 1): 0.015
Fi MEM 2 ([3]; AA 105 Pro, replicate 2): 0.091
Fi MEM 3 ([3]; AA 105 Pro, replicate 3): -0.184
Fi MEM AVG ([3]; AA 105 Ser): -0.010
Fi MEM 1 ([3]; AA 105 Ser, replicate 1): 0.139
Fi MEM 2 ([3]; AA 105 Ser, replicate 2): 0.033
Fi MEM 3 ([3]; AA 105 Ser, replicate 3): -0.203
Fi MEM AVG ([3]; AA 105 Thr): -0.084
Fi MEM 1 ([3]; AA 105 Thr, replicate 1): -0.289
Fi MEM 2 ([3]; AA 105 Thr, replicate 2): 0.235
Fi MEM 3 ([3]; AA 105 Thr, replicate 3): -0.199
Fi MEM AVG ([3]; AA 105 Trp): -0.176
Fi MEM 1 ([3]; AA 105 Trp, replicate 1): -0.657
Fi MEM 2 ([3]; AA 105 Trp, replicate 2): 0.184
Fi MEM 3 ([3]; AA 105 Trp, replicate 3): -0.056
Fi MEM AVG ([3]; AA 105 Tyr): 0.000
Fi MEM 1 ([3]; AA 105 Tyr, replicate 1): 0.000
Fi MEM 2 ([3]; AA 105 Tyr, replicate 2): 0.000
Fi MEM 3 ([3]; AA 105 Tyr, replicate 3): 0.000
Fi MEM AVG ([3]; AA 105 Val): -0.088
Fi MEM 1 ([3]; AA 105 Val, replicate 1): -0.115
Fi MEM 2 ([3]; AA 105 Val, replicate 2): 0.193
Fi MEM 3 ([3]; AA 105 Val, replicate 3): -0.342
WT abs Fi 1 ([3]; absolute fitness of TEM-1 WT, MEM, replicate 1): 0.006
WT abs Fi 2 ([3]; absolute fitness of TEM-1 WT, MEM, replicate 2): -0.204
WT abs Fi 3 ([3]; absolute fitness of TEM-1 WT, MEM, replicate 3): 0.439
MIC [4]: 0.1 µg/mL (≈ 0.261 µM)
MIC [5]: 0.4 µg/mL (≈ 1.04 µM)

From publication PMC12274840 (The Journal of Biological Chemistry, 2025)
